Test results as given in US20230365959A1, “METHOD FOR IMPROVING THE STABILITY OF A COMPOSITION COMPRISING A FLAVIN-DEPENDENT LACTATE DEHYDROGENASE” (KIKKOMAN CORPORATION, priority 2020, published 2023).

These compounds were tested on lactate dehydrogenase from Pichia kudriavzevii (PkLDH) (assay: Thermal stability of PkLDH (residual activity ratio after heat treatment, potassium phosphate buffer)). Details: PkLDH 2 U/mL; added compound 300 mM; 150 mM potassium phosphate buffer pH 7.5, 0.15% BSA; 55°C for 15 minutes.
Type: biochemical
Method: Thermal stability of LDH can be evaluated by heating LDH at a given temperature for a given time and comparing the activity thereof before and after heating. […] The LDH activity of an LDH solution which is allowed to stand still on ice without heating is taken as 100 and the LDH activity after heating is calculated and, the residual activity ratio (ratio of remaining activity) (%) can be determined.
More specifically, the residual activity ratio (%) can be obtained by measuring LDH activity value (a) of a solution before heat treatment or before long-term storage and LDH activity value (b) of a solution after heat treatment or after long-term storage and calculating ((b)/(a)×100).
Using the purified PkLDH preparation obtained above, the residual activity ratio (%) in the presence and absence of an LDH stabilizer were compared in accordance with the LDH thermal stability evaluation method mentioned previously, and in this manner, a stabilizer was searched.
(§1) The thermal stability of LDH was evaluated by heating LDH at a given temperature for a given time and comparing the activities before and after heating. […] Further, LDH activity of an LDH solution allowed to stand still on ice without any heat treatment was measured. Based on the activity of this case without any heat treatment taken as 100, the activities of LDH solutions after heat treatment were calculated to determine the residual activity ratio (%). More specifically, the residual activity ratio (%) can be obtained by measuring LDH activity value (a) of a solution before heat treatment or before long-term storage, and LDH activity value (b) of a solution after heat treatment or after long-term storage, and then, calculating ((b)/(a)×100).
The degree of LDH stability improving effect of each of the various added compounds was evaluated by preparing an LDH solution by allowing LDH to coexist with each of the various compounds, subjecting the solution to a heat treatment and determining the residual activity ratio (%) of the solution, and evaluating the residual activity (%) by mutually comparing the cases between compounds or comparing the case to a case where no compound was added.
(§2) The activity of LDH was determined in accordance with the following procedure. […] Subsequently, a 30 mM PMS solution (50 μL) and an enzyme sample solution (50 μL) were added to the mixture to initiate a reaction. Absorbance at 520 nm was measured at the time of initiation of the reaction and over time and, the degree of reduction (ΔA520) in absorbance per minute as the enzymatic reaction progresses was obtained and LDH activity was calculated in accordance with the following Mathematical formula 2. Here, LDH activity is expressed by an enzyme (LDH) unit, and 1U is defined as the amount of the enzyme that can reduce 1 μmol DCIP per minute at 37° C. in the presence of 10 mM L-lactate.
The pH of the PkLDH solution was adjusted to be 7.5 after each of the compounds was added. Heat treatment was carried out at 55° C. for 15 minutes. As a comparative example, an LDH solution prepared without adding any compound was subjected to the same experiment. It should be noted that, unless specified otherwise, the reagents used herein were all purchased from Tokyo Chemical Industry Co., Ltd. […]

Compound	Residual activity ratio (%)
O=C(O)C(O)Cc1ccccc1 (racemic) [DL-phenyllactic acid, DL-3-phenyllactic acid]	87
N.N.O=S(=O)(O)O [Ammonium sulfate, ammonium sulfate]	54
O=C(O)C[C@@H](O)C(=O)O [D-malic acid]	47
O=C(O)/C=C/C(=O)O [Fumaric acid, fumaric acid]	41
O=C(O)/C=C\C(=O)O [Maleic acid, maleic acid]	45
O=C(O)CC(=O)C(=O)O [Oxaloacetic acid, oxaloacetic acid]	45
N[C@@H](CC(=O)O)C(=O)[O-].[Na+] [Sodium aspartate, L-sodium aspartate]	64
O=C([O-])CC(O)(CC(=O)[O-])C(=O)[O-].[Na+].[Na+].[Na+] [Sodium citrate, sodium citrate]	42
O=C([O-])[C@H](O)[C@@H](O)[C@H](O)[C@H](O)CO.[Na+] [Sodium gluconate, sodium gluconate]	57
O=S(=O)([O-])[O-].[Na+].[Na+] [Sodium sulfate, sodium sulfate]	50
O=C(O)CCC(=O)O [Succinic acid, succinic acid]	54
OC[C@H]1O[C@@](CO)(O[C@H]2O[C@H](CO)[C@@H](O)[C@H](O)[C@H]2O)[C@@H](O)[C@@H]1O [Sucrose, sucrose]	42
OC[C@H]1O[C@H](O[C@H]2O[C@H](CO)[C@@H](O)[C@H](O)[C@H]2O)[C@H](O)[C@@H](O)[C@@H]1O [Trehalose dihydrate, trehalose dihydrate]	41
DL-leucine acid	92

Each compound was assayed on lactate dehydrogenase from Candida inconspicua (CaLDH) (assay: Thermal stability of CaLDH (residual activity ratio after heat treatment)). Details: CaLDH 2 U/mL; compound 300 mM; potassium phosphate buffer pH 7.5; 50°C for 15 minutes.
Type: biochemical
Method: as §1, §2
Stability evaluation tests were conducted to check the improvement effect of malic acid on the stability of various LDHs. […] Each of these diluted enzyme solutions (a mixture of an enzyme and L-malic acid, LDH concentration: 2 U/mL, L-malic acid concentration: 300 mM) was heated in accordance with the thermal-stability evaluation method described in Section 4. More specifically, PkLDH was treated at 55° C., whereas, CaLDH and OgLDH were treated at 50° C. for 15 minutes and then the residual activity ratio (%) was calculated, based on the activity before heating taken as 100. […]

Compound	improvement effect on the stability of LDH [%]
OC[C@H]1O[C@H](O[C@H]2[C@H](O)[C@@H](O)C(O)O[C@@H]2CO)[C@H](O)[C@@H](O)[C@@H]1O (mixture of isomers) [maltose monohydrate]	5
O=C(O)CN(CCN(CC(=O)O)CC(=O)O)CC(=O)O [ethylenediaminetetraacetic acid]	56

Each compound was assayed on lactate dehydrogenase from Ogataea parapolymorpha (OgLDH) (assay: Thermal stability of OgLDH (residual activity ratio after heat treatment)). Details: OgLDH 2 U/mL; compound 300 mM; potassium phosphate buffer pH 7.5; 50°C for 15 minutes.
Type: biochemical
Method: as §1, §2
Stability evaluation tests were conducted to check the improvement effect of malic acid on the stability of various LDHs. […] Each of these diluted enzyme solutions (a mixture of an enzyme and L-malic acid, LDH concentration: 2 U/mL, L-malic acid concentration: 300 mM) was heated in accordance with the thermal-stability evaluation method described in Section 4. More specifically, PkLDH was treated at 55° C., whereas, CaLDH and OgLDH were treated at 50° C. for 15 minutes and then the residual activity ratio (%) was calculated, based on the activity before heating taken as 100. As a comparative example, a sample without adding any L-malic acid in the enzyme diluent was subjected to the same experiment, and the ratio of residual activity in both cases were compared.
Using the purified OgLDH preparation obtained above, the ratios of remaining activities (%) in the presence and absence of a LDH stabilizer were compared in accordance with the LDH thermal stability evaluation method described in Section 4. In this manner, a stabilizer was searched.
The pH of the LDH solution was adjusted to be 7.5 after each of the compounds was added. Heat treatment was carried out at 50° C. for 15 minutes.

Compound	LDH stability improving effect [%]
N[C@@H](Cc1c[nH]cn1)C(=O)O [L-histidine]	27
Cl.NCCCC[C@H](N)C(=O)O [L-lysine hydrochloride]	66
NCC(=O)O [glycine]	11

The compounds below were run against T1, lactate dehydrogenase from Saccharomyces cereviciae (ScLDH) (Saccharomyces cerevisiae, UniProt P00175) (assay: Thermal stability of ScLDH (supernatant of crushed bacterial cells)). Details: ScLDH 2 U/mL; compound 300 mM; potassium phosphate buffer pH 7.5; 40°C for 15 minutes.
T1 construct: made in house; host or cells: Escherichia coli BL21 (pKK223-3-ScLDH); unpurified supernatant of crushed cells
T1 sequence (P00175 86-591): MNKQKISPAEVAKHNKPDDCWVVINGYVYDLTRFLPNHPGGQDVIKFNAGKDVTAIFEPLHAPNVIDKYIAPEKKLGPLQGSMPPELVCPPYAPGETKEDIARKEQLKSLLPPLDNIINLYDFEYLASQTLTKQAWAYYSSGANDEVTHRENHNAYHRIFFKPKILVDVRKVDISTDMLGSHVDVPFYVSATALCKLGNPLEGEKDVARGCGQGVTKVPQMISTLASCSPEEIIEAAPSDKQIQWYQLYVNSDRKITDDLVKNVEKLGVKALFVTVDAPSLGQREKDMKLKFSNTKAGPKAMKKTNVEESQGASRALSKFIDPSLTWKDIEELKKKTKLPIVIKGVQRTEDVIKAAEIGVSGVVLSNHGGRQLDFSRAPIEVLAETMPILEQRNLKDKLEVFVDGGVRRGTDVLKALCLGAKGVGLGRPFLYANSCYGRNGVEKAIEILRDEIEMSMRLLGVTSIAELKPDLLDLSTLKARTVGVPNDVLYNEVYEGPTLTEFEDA
Type: biochemical
Method: as §1, §2
Using the supernatant of a solution comprising crushed ScLDH bacterial cells obtained above, the ratios of remaining activities (%) in the presence and absence of a LDH stabilizer were compared in accordance with the LDH thermal stability evaluation method described in Section 4. In this manner, a stabilizer was searched.
The pH of the LDH solution was adjusted to be 7.5 after each of the compounds was added. Heat treatment was carried out at 40° C. for 15 minutes.

Compound	stability improving effect on ScLDH [%]
N.N.O=S(=O)(O)O [Ammonium sulfate, ammonium sulfate]	24

The compounds below were run on lactate dehydrogenase from Pichia kudriavzevii (PkLDH) (assay: Chronoamperometry with printed electrode to which PkLDH plus stabilizer was applied and dried (5 mM mPMS/PBS)). Details: added compound 50 mM, +200 mV, 0 mM lactate.
Type: biochemical
Method: An enzyme electrode was prepared using the purified PkLDH preparation obtained above and chronoamperometry was carried out. Each of the compounds was added to an enzyme solution in advance and tested whether or not a stabilizing effect of the enzyme during a drying step was exerted. LDH (1 U) solutions comprising compounds in a concentration (0.2% (w/v), 2% (w/v) and 50 mM, respectively) as described in Table 8 were each applied to a screen-printed carbon electrode C110 (manufactured by Metrohm-Dropsens) in an amount of 4 μL and dried at 40° C. for 60 minutes. The same procedure was repeated using an LDH solution without adding any one of the compounds. Each of the electrodes prepared was connected to ALS electrochemical analyzer 814D (manufactured by BAS) using a dedicated connector (DRP-CAC, manufactured by Drop Sense). Subsequently, 100 μL of a 2 mM mPMS/PBS solution was added dropwise to dissolve the dried LDH. The applied voltage was +200 mV (vs Ag/Ag+). An L-sodium lactate solution was added and a response current value 5 seconds after initiation of measurement was recorded. […] Further, in the same manner as above, a 1 U LDH solution comprising 1% polyacrylic acid was applied to a screen printed carbon electrode and dried and then a 2 mM mPMS/PBS solution (100 μL) was added dropwise to dissolve the dried LDH. Then, an L-sodium lactate solution was added such that the final concentration thereof would be 2 to 10 mM, and a response current value 5 seconds after initiation of measurement was recorded.
Chronoamperometry was carried out by changing the concentration of the compound to be added as a stabilizer and the concentration of L-sodium lactate used as a substrate. To an electrode prepared in the same manner as in the preceding Section, 100 μL of a 5 mM mPMS/PBS solution was added dropwise to dissolve the dried LDH. A voltage of +200 mV (vs Ag/Ag+) was applied. An L-sodium lactate solution was added and a response current value 5 seconds after initiation of measurement was recorded.

Compound	Current value 5 second later (μA), 0 mM lactate [μA]
O=C([O-])CC(O)C(=O)[O-].[Na+].[Na+] [L-sodium malate]	0.43
O[C@H]1[C@H](O)[C@@H](O)[C@H](O)[C@@H](O)[C@H]1O [myo-inositol]	0.23

Same assay, conditions: added compound 50 mM, +200 mV, 5 mM lactate

Compound	Current value 5 second later (μA), 5 mM lactate [μA]
O=C([O-])CC(O)C(=O)[O-].[Na+].[Na+] [L-sodium malate]	94.4
O[C@H]1[C@H](O)[C@@H](O)[C@H](O)[C@@H](O)[C@H]1O [myo-inositol]	104.4
